Our source for the IC50 values is patent publication US9987276B2 (Celgene CAR LLC, priority 2008, dated 2018).

Molecules are shown by their SMILES. pIC50: −log10 of the molar value. Read-outs that look alike come from different tables or passages of the source.

Assay [1] deals with ITK (Homo sapiens (Human), UniProt Q08881). In words: Omnia assay for potency assessment against active forms of ITK kinase. Format: biochemical. Particulars: [ITK]=10 nM, [ATP]=25, [Y6-Sox]=10 μM; read-out: ITK Inhibition. The protocol:
[ITK]=10 nM, [ATP]=25 [Y6-Sox]=10 μM (ATP KMapp=33 μM).

In assay [2] the target is T1, BTK (Homo sapiens (Human), UniProt Q06187). The experiment in a line: BTK Ramos cellular assay (PLCγ2 phosphorylation). Format: cell-based. The settings on record: Ramos cells, 1 hour compound, anti-IgM stimulation, p-PLCγ2; read-out: BTK Inhibition (IC50), BTK Ramos cellular inhibition. The protocol:
Ramos cells were grown in suspension in T225 flasks, spun down, resuspended in 50 ml serum-free media and incubated for 1 hour. […] Ramos cells were incubated with compound for 1 hour, washed again and resuspended in 100 ul serum-free media. Cells were then stimulated with 1 μg of goat F(ab′)2 Anti-Human IgM and incubated on ice for 10 minutes to activate B cell receptor signaling pathways. After 10 minutes, the cells were washed once with PBS and then lysed on ice with Invitrogen Cell Extraction buffer. 16 μg total protein from lysates were loaded on gel and blots were probed for phosphorylation of the BTK substrate PLCγ2.

Assay [3] deals with T1, BTK. The experiment in a line: Omnia assay for potency assessment against BTK. Format: biochemical. The settings on record: [BTK]=5 nM, Omnia assay; read-out: BTK Inhibition (IC50). The method, then: The modified BTK-optimized reagent conditions for the above protocol are:
[BTK]=5 nM, [ATP]=[…], [Y5-Sox]=[…] (ATP KMapp˜[…]).

Assay [4] has as its target EGFR-WT (Homo sapiens (Human), UniProt P00533). The experiment in a line: Omnia assay for potency assessment against EGFR (WT).
Setting [5] is: read-out: EGFR (wild type inhibition), EGFR wild type.

ITK, sequence (Q08881 whole entry): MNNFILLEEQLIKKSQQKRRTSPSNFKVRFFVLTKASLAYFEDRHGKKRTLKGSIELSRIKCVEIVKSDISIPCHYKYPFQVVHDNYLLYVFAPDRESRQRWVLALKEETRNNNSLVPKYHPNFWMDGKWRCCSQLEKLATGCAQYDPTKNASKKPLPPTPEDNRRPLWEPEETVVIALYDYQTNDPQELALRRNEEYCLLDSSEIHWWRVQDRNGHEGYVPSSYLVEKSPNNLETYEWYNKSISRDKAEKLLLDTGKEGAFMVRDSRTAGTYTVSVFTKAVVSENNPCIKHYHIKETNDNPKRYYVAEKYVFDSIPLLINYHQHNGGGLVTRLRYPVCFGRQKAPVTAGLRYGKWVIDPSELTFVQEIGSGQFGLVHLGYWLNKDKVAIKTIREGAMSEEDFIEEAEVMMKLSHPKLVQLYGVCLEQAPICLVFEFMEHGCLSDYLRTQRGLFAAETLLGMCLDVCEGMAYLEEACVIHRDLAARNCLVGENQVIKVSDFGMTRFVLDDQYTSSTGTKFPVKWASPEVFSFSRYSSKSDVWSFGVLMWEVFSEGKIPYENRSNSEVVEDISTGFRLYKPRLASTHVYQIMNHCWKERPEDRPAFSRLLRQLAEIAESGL
T1 sequence (Q06187 whole entry): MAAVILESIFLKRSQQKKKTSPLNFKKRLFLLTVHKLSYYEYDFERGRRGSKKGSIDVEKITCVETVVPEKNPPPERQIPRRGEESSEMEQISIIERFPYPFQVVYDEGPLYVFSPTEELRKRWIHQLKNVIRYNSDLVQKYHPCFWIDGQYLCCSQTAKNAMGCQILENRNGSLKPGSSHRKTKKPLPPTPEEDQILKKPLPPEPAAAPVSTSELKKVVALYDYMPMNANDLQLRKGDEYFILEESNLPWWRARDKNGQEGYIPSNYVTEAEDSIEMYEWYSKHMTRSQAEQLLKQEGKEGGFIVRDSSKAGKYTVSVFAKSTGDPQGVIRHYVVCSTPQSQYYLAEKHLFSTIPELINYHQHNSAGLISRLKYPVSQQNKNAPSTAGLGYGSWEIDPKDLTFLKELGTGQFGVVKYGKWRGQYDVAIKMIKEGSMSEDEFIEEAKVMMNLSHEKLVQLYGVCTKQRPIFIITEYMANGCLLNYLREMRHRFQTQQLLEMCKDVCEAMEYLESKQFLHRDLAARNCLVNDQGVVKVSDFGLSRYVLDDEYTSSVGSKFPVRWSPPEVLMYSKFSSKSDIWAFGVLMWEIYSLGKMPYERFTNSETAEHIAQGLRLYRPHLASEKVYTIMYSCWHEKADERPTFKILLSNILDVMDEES
EGFR-WT, sequence (P00533 668-1210): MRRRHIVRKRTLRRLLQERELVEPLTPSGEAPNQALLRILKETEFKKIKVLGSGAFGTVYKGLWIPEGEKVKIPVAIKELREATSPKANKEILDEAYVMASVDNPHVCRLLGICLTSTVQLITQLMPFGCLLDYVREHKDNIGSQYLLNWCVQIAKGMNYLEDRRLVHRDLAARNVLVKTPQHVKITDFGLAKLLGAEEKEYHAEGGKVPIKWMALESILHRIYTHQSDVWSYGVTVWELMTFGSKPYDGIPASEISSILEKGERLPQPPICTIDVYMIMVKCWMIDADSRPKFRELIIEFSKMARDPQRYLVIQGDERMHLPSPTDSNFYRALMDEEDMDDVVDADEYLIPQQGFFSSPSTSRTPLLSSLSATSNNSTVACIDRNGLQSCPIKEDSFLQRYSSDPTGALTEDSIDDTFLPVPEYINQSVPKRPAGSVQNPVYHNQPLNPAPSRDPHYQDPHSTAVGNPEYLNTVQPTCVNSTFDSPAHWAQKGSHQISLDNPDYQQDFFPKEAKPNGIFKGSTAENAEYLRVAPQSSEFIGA

As to `C=CC(=O)Nc1cc(Nc2nc(Nc3ccc(OCCOC)cc3)ncc2F)ccc1Cl` [Compound I-108, N-(2-chloro-5-(5-fluoro-2-(4-(2-methoxyethoxy)phenylamino)pyrimidin-4-ylamino)phenyl)acrylamide], the pIC50 is 7.00 to 8.00 in assay [1], 7.00 to 8.00 in assay [2], > 8.00 in assay [3] and 6.00 to 7.00 in assay [4].
As to `C=CC(=O)Nc1cccc(Nc2nc(Nc3cccc(OCC(=O)N4CCOCC4)c3)ncc2F)c1` [Compound I-110, N-(3-(5-fluoro-2-(3-(2-morpholino-2-oxoethoxy)phenylamino)pyrimidin-4-ylamino)phenyl)acrylamide], the pIC50 is 7.00 to 8.00 in assay [1], 7.00 to 8.00 in assay [2], > 8.00 in assay [3] and 7.00 to 8.00 in assay [4].
On to `C=CC(=O)N(C)Cc1ccc(Nc2nc(Nc3ccc(OC)nc3)ncc2F)cc1` [Compound I-114, N-(4-(5-fluoro-2-(6-methoxypyridin-3-ylamino)pyrimidin-4-ylamino)benzyl)-N-methylacrylamide], for which the pIC50 was 5.00 to 6.00 in assay [1], 7.00 to 8.00 in assay [2], > 8.00 in assay [3] and 5.00 to 6.00 in assay [4] (setting [5]).
Regarding `C=CC(=O)Nc1cccc(Nc2nc(Nc3cccc(OCC(C)(C)O)c3)ncc2F)c1` [Compound I-118, N-(3-(5-fluoro-2-(3-(2-hydroxy-2-methylpropoxy)phenylamino)pyrimidin-4-ylamino)phenyl)acrylamide], the pIC50 is 7.00 to 8.00 in assay [1], > 8.00 in assay [2], > 8.00 in assay [3] and 7.00 to 8.00 in assay [4].
On to `C=CC(=O)Nc1cccc(Nc2nc(Nc3ccc(OCCO)nc3)ncc2C(C)=O)c1` [Compound I-121, N-(3-{5-Acetyl-2-[6-(2-hydroxy-ethoxy)-pyridin-3-ylamino]-pyrimidin-4-ylamino}-phenyl)-acrylamide], for which the pIC50 was > 8.00 in assay [1], 7.00 to 8.00 in assay [2], > 8.00 in assay [3] and 7.00 to 8.00 in assay [4].
As for `C=CC(=O)Nc1cccc(Nc2nc(Nc3ccc(OCCOC)nc3)ncc2C(C)=O)c1` [Compound I-122, N-(3-{5-Acetyl-2-[6-(2-methoxy-ethoxy)-pyridin-3-ylamino]-pyrimidin-4-ylamino}-phenyl)-acrylamide], the pIC50 in assay [1] is > 8.00; in assay [2], > 8.00; in assay [3] it was > 8.00; in assay [4], 7.00 to 8.00.
On to `C=CC(=O)Nc1cccc(Nc2nc(Nc3ccc(OCCOC)cc3)ncc2C(C)=O)c1` [Compound I-124, N-(3-{5-Acetyl-2-[4-(2-methoxy-ethoxy)-phenylamino]-pyrimidin-4-ylamino}-phenyl)-acrylamide], for which the pIC50 in assay [1] is > 8.00; in assay [2], > 8.00; in assay [3], > 8.00; in assay [4], 7.00 to 8.00.
For `COc1ccc(Nc2ncc(F)c(Nc3cccc(NC(=O)/C=C/CN(C)C)c3)n2)cn1` [Compound I-125, (E)-4-(dimethylamino)-N-(3-(5-fluoro-2-(6-methoxypyridin-3-ylamino)pyrimidin-4-ylamino)phenyl)but-2-enamide], the pIC50 in assay [1] was 7.00 to 8.00; in assay [2], 7.00 to 8.00; in assay [3], > 8.00; in assay [4] it was 6.00 to 7.00.
For `C=CC(=O)Nc1cccc(Nc2nc(Nc3ccc4c(c3)N(S(C)(=O)=O)CCO4)ncc2F)c1` [Compound I-140, N-(3-(2-(4-methylsulfonyl-2,3-dihydrobenzo[1,4]oxazin-6-yl)amino-5-fluoropyrimidin-4-ylamino)phenyl)acrylamide], the pIC50 in assay [1] was 7.00 to 8.00; in assay [2] it was 7.00 to 8.00; in assay [3], > 8.00; in assay [4], 7.00 to 8.00.
Regarding `C=CC(=O)N1CCOc2ccc(Nc3nc(Nc4ccc(N(C)C(=O)C(F)(F)F)nc4)ncc3C(C)=O)cc21` [Compound I-142, N-(5-(5-acetyl-4-(4-acryloyl-3,4-dihydro-2H-benzo[b][1,4]oxazin-6-ylamino)pyrimidin-2-ylamino)pyridin-2-yl)-2,2,2-trifluoro-N-methylacetamide], the pIC50 in assay [1] was > 8.00; in assay [2], 7.00 to 8.00; in assay [3] it was > 8.00; in assay [4] it was 7.00 to 8.00.
In the case of `C=CC(=O)Nc1cccc(Nc2nc(Nc3ccc4c(c3)N(C(=O)C(F)(F)F)CCO4)ncc2F)c1` [Compound I-143, N-(3-(2-(4-trifluoroacetyl-2,3-dihydrobenzo[1,4]oxazin-6-yl)amino-5-fluoropyrimidin-4-ylamino)phenyl)acrylamide], the pIC50 in assay [1] was 7.00 to 8.00; in assay [2], > 8.00; in assay [3], > 8.00; in assay [4], 7.00 to 8.00.
In the case of `C=CC(=O)N1CCC[C@@H](Nc2nc(Nc3cccc(Cl)c3)ncc2F)C1` [Compound I-147, (R)-1-(3-(2-(3-chlorophenylamino)-5-fluoropyrimidin-4-ylamino)piperidin-1-yl)prop-2-en-1-one], the pIC50 in assay [1] was > 8.00; in assay [2], 7.00 to 8.00; in assay [3], > 8.00; in assay [4] (setting [5]) it was > 8.00.
Consider `C=CC(=O)N1CCOc2ccc(Nc3nc(Nc4ccc(OCCOC)cc4)ncc3C(C)=O)cc21` [Compound I-150, 1-(6-{5-Acetyl-2-[4-(2-methoxy-ethoxy)-phenylamino]-pyrimidin-4-ylamino}-2,3-dihydro-benzo[1,4]oxazin-4-yl)-propenone], for which the pIC50 in assay [1] is > 8.00; in assay [2] it was 7.00 to 8.00; in assay [3], > 8.00; in assay [4] (setting [5]), > 8.00.
In the case of `C=CC(=O)Nc1cccc(Nc2nc(Nc3ccc4c(cnn4C(=O)OC(C)(C)C)c3)ncc2F)c1` [Compound I-151], the pIC50 in assay [1] was 7.00 to 8.00; in assay [2], > 8.00; in assay [3], > 8.00; in assay [4] it was 7.00 to 8.00.
Turning to `C=CC(=O)Nc1cccc(Nc2nc(Nc3ccc4[nH]ncc4c3)ncc2F)c1` [Compound I-156], the pIC50 in assay [1], in assay [2], in assay [3] and in assay [4] (setting [5]) was > 8.00 each time.
For `C=CC(=O)Nc1cccc(Nc2nc(Nc3ccccc3)ncc2C#N)c1` [Compound I-157, N-(3-(5-cyano-2-(phenylamino)pyrimidin-4-ylamino)phenyl)acrylamide], the pIC50 in assay [1], in assay [2], in assay [3] and in assay [4] (setting [5]) was > 8.00 throughout.
On to `C=CC(=O)Nc1cccc(Nc2nc(Nc3cccc(OC)c3)ncc2OC)c1` [Compound I-158, N-(3-(5-methoxy-2-(3-methoxyphenylamino)pyrimidin-4-ylamino)phenyl)acrylamide], for which the pIC50 in assay [1] is 7.00 to 8.00; in assay [2], 7.00 to 8.00; in assay [3], > 8.00; in assay [4] it was 7.00 to 8.00.
With `C=CC(=O)Nc1cccc(Oc2nc(Nc3ccc(OC)nc3)ncc2C(=O)Nc2ccccc2)c1` [Compound I-159, 4-(3-acrylamidophenoxy)-2-(6-methoxypyridin-3-ylamino)-pyrimidine-5-carboxylic acid phenylamide], the pIC50 in assay [1] was 6.00 to 7.00; in assay [2], 6.00 to 7.00; in assay [3], > 8.00; in assay [4] (setting [5]), > 8.00.
Regarding `C=CC(=O)Nc1cccc(Nc2nc(Nc3cccc(S(N)(=O)=O)c3)ncc2F)c1` [Compound I-160, N-(3-(5-fluoro-2-(3-sulfamoylphenylamino)pyrimidin-4-ylamino)phenyl)acrylamide], the pIC50 was > 8.00 in assay [1], 7.00 to 8.00 in assay [2], > 8.00 in assay [3] and > 8.00 in assay [4] (setting [5]).
`C=CC(=O)N1Cc2ccc(Nc3nc(Nc4ccc(OC)nc4)ncc3F)cc2C1` [Compound I-165, 1-(5-(5-fluoro-2-(6-methoxypyridin-3-ylamino)pyrimidin-4-ylamino)isoindolin-2-yl)prop-2-en-1-one]: the pIC50 in assay [1] is > 8.00; in assay [2] it was 7.00 to 8.00; in assay [3], > 8.00; in assay [4], 6.00 to 7.00.
`C=CC(=O)N1CCc2ccc(Nc3nc(Nc4ccc(OC)nc4)ncc3F)cc21` [Compound I-166, 1-(6-(5-fluoro-2-(6-methoxypyridin-3-ylamino)pyrimidin-4-ylamino)indolin-1-yl)prop-2-en-1-one]: the pIC50 is > 8.00 in assay [1], 7.00 to 8.00 in assay [2], > 8.00 in assay [3] and 6.00 to 7.00 in assay [4].
Turning to `C=CC(=O)Nc1cccc(Nc2nc(Nc3ccc(OC)nc3)ncc2C2CC2)c1` [Compound I-167, N-(3-(5-cyclopropyl-2-(6-methoxypyridin-3-ylamino)pyrimidin-4-ylamino)phenyl)acrylamide], the pIC50 in assay [1] is > 8.00; in assay [2], 7.00 to 8.00; in assay [3] it was > 8.00; in assay [4] (setting [5]), > 8.00.
With `C=CC(=O)N1CCOc2ccc(Nc3nc(Nc4ccc(N5CCOCC5)nc4)ncc3C(C)=O)cc21` [Compound I-168, 1-{6-[5-Acetyl-2-(6-morpholin-4-yl-pyridin-3-ylamino)-pyrimidin-4-ylamino]-2,3-dihydro-benzo[1,4]oxazin-4-yl}-propenone], the pIC50 is > 8.00 in assay [1], 7.00 to 8.00 in assay [2], > 8.00 in assay [3] and 7.00 to 8.00 in assay [4].
